Read-outs that look alike come from different tables or passages of the source.
Tests used:
A431 cells = test: Inhibition of cellular proliferation (sulforhodamine B staining); settings: for A431 HCR (Hypoxic Cytotoxicity Ratio): fold change in intra-experimental IC50, 4 hours anoxia relative to oxic only
H1975 cells = test: as above; settings: for H1975 HCR (Hypoxic Cytotoxicity Ratio): fold change in intra-experimental IC50, 4 hours anoxia relative to oxic only
SKOV3 cells = test: as above; settings: for SKOV3 HCR (Hypoxic Cytotoxicity Ratio): fold change in intra-experimental IC50, 4 hours anoxia relative to oxic only
H1975 tumours = settings: H1975 xenograft, q3dx4, intraperitoneal; for Drug related deaths: lactate buffer pH 4; for Weight Loss Nadir (%): mean nadir relative to day 0 weight
[1] = pulse radiolysis, determined against methylviologen
A431 tumours = settings: A431 xenograft, q3dx4, intraperitoneal; for Drug related deaths: lactate buffer pH 4; for TGD (Tumour Growth Delay): % increase in time to RTV4 relative to control; for Weight Loss Nadir (%): mean nadir relative to day 0 weight
erbB1 (EGFR) = erbB1 (EGFR) (Homo sapiens, UniProt P00533); test: Inhibition of erbB1 autophosphorylation in EGF-stimulated intact A431 cells (Western immunoblotting); assay type: cell-based; settings: 1 hour treatment, phospho-EGFR (Tyr 1068), β-actin corrected
Method: (§1) A431 cells were seeded into 6 well plates (with αMEM+5% FCS). The following day, plates were washed once with serum-free medium and grown for 18 hours in serum-free medium (αMEM) before being exposed to a range of inhibitor or prodrug concentrations for 1 hour and then stimulated for 15 minutes with 100 ng/ml epidermal growth factor (EGF receptor ligand). Next cells were washed with ice cold PBS and lysed in modified RIPA buffer on ice (30 min). Lysates were vortexed and clarify by spinning before protein concentrations of samples was determined by BCA assay. […] All antibodies were diluted in 2% BSA TBS-Tween 0.1%. To detect phospho-EGFR (Tyr 1068) the monoclonal antibody (1:500; Cell Signalling #2234) was incubated overnight at 4° C. and binding was detected with goat-anti-Rabbit-IgG-HRP conjugated secondary antibody (1:5000; Santa Cruz #SC2054; 3 h RT). To detect downstream phospho-p44/42 MAPK(Erk 1/2) (Thr202/Tyr 204) the monoclonal antibody (Cell Signalling #4370) was used at a 1:500 dilution. The blot was then treated with Goat anti-rabbit IgG-HRP conjugated secondary antibody (Santa Cruz Biotechnology, Inc. sc-2054) for three hours at a ratio of 1:5000. To normalise for any inaccuracy in gel loading, each blot was probed with anti-β-actin antibody (Abacus ALS #MAB-1501R, 1:2000 dilution). The following day, the blot was treated with Goat anti-mouse IgG-HRP conjugated secondary antibody (Santa Cruz Biotechnology, Inc. sc-2055) for one hour at a 1:5000 ratio. Protein bands were visualized using Amersham ECL Plus Western Blotting Detection Reagent (GE Healthcare RPN2132). Densitometry was determined using Image J software. Values normalized to β-actin were plotted on SigmaPlot 11.0.

p44/42 MAPK (Erk1/2) = test: Inhibition of p44/42 MAPK (Erk1/2) phosphorylation in EGF-stimulated intact A431 cells (Western immunoblotting); assay type: cell-based, human
Method: as §1

[2] = read-out: Cellular Growth Inhibition IC50 A431 Anoxic, initial 4 hours of the 24 hour exposure under anoxic conditions
[3] = read-out: Cellular Growth Inhibition IC50 A431 Oxic, 24 hour exposure entirely under oxic conditions, washed, further 4 days
[4] = read-out: Cellular Growth Inhibition IC50 H1975 Anoxic, initial 4 hours of the 24 hour exposure under anoxic conditions
[5] = read-out: Cellular Growth Inhibition IC50 H1975 Oxic, 24 hour exposure entirely under oxic conditions, washed, further 4 days
[6] = read-out: Cellular Growth Inhibition IC50 SKOV3 Anoxic, initial 4 hours of the 24 hour exposure under anoxic conditions
[7] = read-out: Cellular Growth Inhibition IC50 SKOV3 Oxic, 24 hour exposure entirely under oxic conditions, washed, further 4 days

Sequence of erbB1 (EGFR) (P00533 25-1210): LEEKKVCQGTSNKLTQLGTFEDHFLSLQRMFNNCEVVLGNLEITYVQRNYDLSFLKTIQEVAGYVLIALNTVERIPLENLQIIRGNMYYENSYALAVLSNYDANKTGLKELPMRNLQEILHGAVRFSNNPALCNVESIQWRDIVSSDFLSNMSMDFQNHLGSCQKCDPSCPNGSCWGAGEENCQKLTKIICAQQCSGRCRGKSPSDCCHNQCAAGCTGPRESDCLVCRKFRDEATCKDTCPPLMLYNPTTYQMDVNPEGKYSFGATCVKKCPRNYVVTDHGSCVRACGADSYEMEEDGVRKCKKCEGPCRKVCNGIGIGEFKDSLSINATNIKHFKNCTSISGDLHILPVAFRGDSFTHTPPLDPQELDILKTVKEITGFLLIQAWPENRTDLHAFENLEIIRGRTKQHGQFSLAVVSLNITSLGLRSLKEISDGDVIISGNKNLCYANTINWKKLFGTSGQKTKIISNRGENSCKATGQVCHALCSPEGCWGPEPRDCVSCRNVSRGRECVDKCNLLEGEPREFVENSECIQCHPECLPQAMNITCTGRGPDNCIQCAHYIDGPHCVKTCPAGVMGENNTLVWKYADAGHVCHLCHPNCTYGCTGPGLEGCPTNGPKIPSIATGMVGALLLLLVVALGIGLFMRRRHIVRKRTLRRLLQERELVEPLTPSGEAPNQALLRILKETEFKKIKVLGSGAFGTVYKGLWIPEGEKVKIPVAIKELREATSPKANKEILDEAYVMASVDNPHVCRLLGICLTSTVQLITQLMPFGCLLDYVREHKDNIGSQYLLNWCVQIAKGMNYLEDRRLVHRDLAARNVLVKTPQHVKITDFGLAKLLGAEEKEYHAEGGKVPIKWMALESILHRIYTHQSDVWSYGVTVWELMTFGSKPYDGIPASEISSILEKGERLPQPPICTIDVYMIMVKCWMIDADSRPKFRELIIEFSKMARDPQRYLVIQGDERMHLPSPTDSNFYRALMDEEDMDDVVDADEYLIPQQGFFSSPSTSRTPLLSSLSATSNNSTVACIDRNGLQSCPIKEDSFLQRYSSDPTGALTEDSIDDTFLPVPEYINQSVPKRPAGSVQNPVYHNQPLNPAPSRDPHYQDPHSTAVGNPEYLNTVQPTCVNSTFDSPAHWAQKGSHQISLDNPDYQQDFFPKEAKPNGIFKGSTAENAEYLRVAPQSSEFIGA

Row | SMILES | IC50 (A431 cells; [2]) [nM] | IC50 (A431 cells; [3]) [nM] | H1975 HCR (Hypoxic Cytotoxicity Ratio) (H1975 cells) | IC50 (H1975 cells; [4]) [nM] | IC50 (H1975 cells; [5]) [nM] | IC50 (SKOV3 cells; [6]) [nM] | IC50 (SKOV3 cells; [7]) [nM] | Drug related deaths (H1975 tumours) | Weight Loss Nadir (%) (H1975 tumours) | SKOV3 HCR (Hypoxic Cytotoxicity Ratio) (SKOV3 cells) | A431 HCR (Hypoxic Cytotoxicity Ratio) (A431 cells) | E(1)/V 1-electron reduction potential [1] [V] | Drug related deaths (A431 tumours) | TGD (Tumour Growth Delay) (A431 tumours) [%] | Weight Loss Nadir (%) (A431 tumours) | TGD (Tumour Growth Delay) (H1975 tumours; % increase in time to RTV4 relative to control) [%] | IC50 (erbB1 (EGFR)) [nM] | downstream p44/42 MAPK(Erk 1/2) phosphorylation (Thr202/Tyr 204), result in words (p44/42 MAPK (Erk1/2); 1 hour treatment) | IC50 (p44/42 MAPK (Erk1/2); Homo sapiens, A-431, 1 hour treatment, read-out: IC50 p44/42 MAPK(Erk 1/2) phosphorylation (Thr202/Tyr 204)) [nM]
1 | Cc1nc([N+](=O)[O-])c(C[N+](C)(C)C/C=C/C(=O)Nc2cc3c(Nc4ccc5c(cnn5Cc5cccc(F)c5)c4)ncnc3cn2)n1C [Compound 14, (2E)-N-[(1,2-dimethyl-4-nitro-1H-imidazol-5-yl)methyl]-4-[(4-{[1-(3-fluorobenzyl)-1H-indazol-5-yl]amino}pyrido[3,4-d]pyrimidin-6-yl)amino]-N,N-dimethyl-4-oxo-2-buten-1-ammonium bromide] | 63 | 5700 | 26 | 1200 | 20000 | 1100 | 32000 |  |  |  |  |  |  |  |  |  |  |  | 
2 | Cn1cnc([N+](=O)[O-])c1C[N+](C)(C)C/C=C/C(=O)Nc1cc2c(Nc3ccc(OCc4cccc(Cl)c4)c(Cl)c3)ncnc2cn1 [Compound 12, (2E)-4-[(4-{3-chloro-4-[(3-chlorobenzyl)oxy]anilino}pyrido[3,4-d]pyrimidin-6-yl)amino]-N,N-dimethyl-N-[(1-methyl-4-nitro-1H-imidazol-5-yl)methyl]-4-oxo-2-buten-1-ammonium bromide] | 370 | 2900 | 14 | 2400 | 36000 | 8100 | 47000 | 0 | −7.8 ± 0.6 | 26 |  |  |  |  |  |  |  |  | 
3 | CN(C)C/C=C/C(=O)Nc1cc2c(Nc3ccc4c(cnn4Cc4cccc(F)c4)c3)ncnc2cn1 [Compound 2, (2E)-4-(dimethylamino)-N-(4-{[1-(3-fluorobenzyl)-1H-indazol-5-yl]amino}pyrido[3,4-d]pyrimidin-6-yl)-2-butenamide] | 90 |  |  | 1000 |  | 900 |  | 0 | −7.9 ± 0.6 |  | 1.0 |  |  |  |  |  |  |  | 
4 | Cn1cnc([N+](=O)[O-])c1C[N+](C)(C)C/C=C/C(=O)Nc1cc2c(Nc3ccc(Br)c(Cl)c3)ncnc2cn1.[Br-] [Compound 18, (2E)-4-{[4-(4-bromo-3-chloroanilino)pyrido[3,4-d]pyrimidin-6-yl]amino}-N,N-dimethyl-N-[(1-methyl-4-nitro-1H-imidazol-5-yl)methyl]-4-oxo-2-buten-1-ammonium bromide] | 12 | 500 |  | 200 | 13300 | 600 | 13000 |  |  | 24 |  | −0.428 | 0 | >250 | −4.1 ± 0.4 |  |  |  | 
5 | Cn1cnc([N+](=O)[O-])c1C[N+](C)(C)C/C=C/C(=O)Nc1cc2c(Nc3ccc(Br)c(Br)c3)ncnc2cn1.[Br-] [Compound 19, (2E)-4-{[4-(3,4-dibromoanilino)pyrido[3,4-d]pyrimidin-6-yl]amino}-N,N-dimethyl-N-[(1-methyl-4-nitro-1H-imidazol-5-yl)methyl]-4-oxo-2-buten-1-ammonium bromide] | 25 | 420 |  | 230 | 15000 | 420 | 29000 | 1 | −2.7 ± 0.6 |  |  | −0.425 |  |  |  | 138 |  |  | 
6 | C#Cc1cc(Nc2ncnc3cnc(NC(=O)/C=C/C[N+](C)(C)Cc4c([N+](=O)[O-])ncn4C)cc23)ccc1F [Compound 20, (2E)-4-{[4-(3-ethynyl-4-fluoroanilino)pyrido[3,4-d]pyrimidin-6-yl]amino}-N,N-dimethyl-N-[(1-methyl-4-nitro-1H-imidazol-5-yl)methyl]-4-oxo-2-buten-1-ammonium bromide] | 130 | 3900 |  | 3300 | 118000 | 4400 | 194000 | 0 | −4.4 ± 2.3 | 15 |  |  |  |  |  |  |  |  | 
7 | CN(C)C/C=C/C(=O)Nc1cc2c(Nc3ccc(Br)c(Br)c3)ncnc2cn1 [Compound 7, (2E)-N-[4-(3,4-dibromoanilino)pyrido[3,4-d]pyrimidin-6-yl]-4-(dimethylamino)-2-butenamide] | 8 | 5 | 1.0 | 270 | 180 | 600 | 370 | 1 | −4.9 ± 2.4 |  | 0.8 |  |  |  |  |  |  |  | 
8 | CN(C)C/C=C/C(=O)Nc1cc2c(Nc3ccc(OCc4ccccn4)c(Cl)c3)ncnc2cn1 [Compound 3, (2E)-N-{4-[3-chloro-4-(2-pyridinylmethoxy)anilino]pyrido[3,4-d]pyrimidin-6-yl}-4-(dimethylamino)-2-butenamide] | 140 |  | 0.8 | 730 |  | 1130 |  | 0 | −4.7 ± 0.4 |  |  |  |  |  |  |  | 48.3 | coordinate loss | 179
9 | C#Cc1cc(Nc2ncnc3cnc(NC(=O)/C=C/CN(C)C)cc23)ccc1F [Compound 8, (2E)-4-(dimethylamino)-N-[4-(3-ethynyl-4-fluoroanilino)pyrido[3,4-d]pyrimidin-6-yl]-2-butenamide] | 120 |  |  | 1400 |  | 1800 |  | 0 | −3.3 ± 3.0 |  |  |  |  |  |  |  |  |  | 
10 | C#Cc1cc(Nc2ncnc3cnc(NC(=O)/C=C/C[N+](C)(C)Cc4c([N+](=O)[O-])ncn4C)cc23)ccc1Cl [Compound 21, (2E)-4-{[4-(4-chloro-3-ethynylanilino)pyrido[3,4-d]pyrimidin-6-yl]amino}-N,N-dimethyl-N-[(1-methyl-4-nitro-1H-imidazol-5-yl)methyl]-4-oxo-2-buten-1-ammonium bromide] | < 10 | 850 | 18 | 600 | 18000 | 1130 | 47000 |  |  |  |  |  | 0 | >250 | −4.3 ± 2.3 |  |  |  | 
11 | CN(C)C/C=C/C(=O)Nc1cc2c(Nc3ccc(Cl)c(Cl)c3)ncnc2cn1 [Compound 4, (2E)-N-[4-(3,4-dichloroanilino)pyrido[3,4-d]pyrimidin-6-yl]-4-(dimethylamino)-2-butenamide] | 15 | 9 |  | 560 |  | 550 | 360 | 0 | −9.7 ± 4.0 | 0.9 | 0.9 |  |  |  |  |  |  |  | 
12 | CN(C)C/C=C/C(=O)Nc1cc2c(Nc3ccc(OCc4cccc(Cl)c4)c(Cl)c3)ncnc2cn1 [Compound 1, (2E)-N-(4-{3-chloro-4-[(3-chlorobenzyl)oxy]anilino}pyrido[3,4-d]pyrimidin-6-yl)-4-(dimethylamino)-2-butenamide] | 221 |  |  | 880 |  | 690 |  | 0 | −3.6 ± 3.0 |  |  |  |  |  |  |  |  |  | 
13 | C#Cc1cc(Nc2ncnc3cnc(NC(=O)/C=C/CN(C)C)cc23)ccc1Cl [Compound 9, (2E)-N-[4-(4-chloro-3-ethynylanilino)pyrido[3,4-d]pyrimidin-6-yl]-4-(dimethylamino)-2-butenamide] | 16 |  | 0.5 | 560 |  | 960 |  |  |  |  |  |  | 0 | >250 | −1.7 ± 1.7 |  |  |  | 

Source: US9101632B2, “Kinase inhibitors, prodrug forms thereof and their use in therapy” (AUCKLAND UNISERVICES LIMITED, priority 2009, dated 2015)
